Results reported in patent US11391740B2, “Methods and materials for identifying and treating cancer” (Mayo Foundation for Medical Education and Research, priority 2019, dated 2022).

Experiments:
C4-2ENZ-R cells = assay: SRB cell proliferation assay in enzalutamide-resistant C4-2 cells; type: cell-based, human; conditions: for sensitivity of C4-2ENZ-R cells compared with C4-2CON cells by half maximal inhibitory concentration (IC50): C4-2ENZ-R vs C4-2CON, 4 days, FIGS. 5A-5C
Description: FIGS. 5A-5D: Dual inhibition of BET and CBP/p300 overcomes ENZ-resistance in ARPCa. A: Heatmap showing the sensitivity of control (C4-2CON) and enzalutamide-resistant C4-2 cells (C4-2ENZ-R) to various inhibitor. B-C: C4-2CON and C4-2ENZ-R cells were treated with the indicated concentrations of BET inhibitor (JQ1) and CBP/p300 inhibitor (CPI637) for 4 days, the cell proliferation was measured by SRB assay, and the 96 well plates were imaged. Data are represented as means±s.d., n=4. Statistical significance was determined by two-way ANOVA. D: C4-2ENZ-R cells were treated with the indicated concentrations of ENZ, JQ1, CPI637, or a combination of JQ1 and CPI-637, and cell proliferation was measured by a SRB assay. Data are represented as means±s.d., n=6. Statistical significance was determined by two-way ANOVA.
FIGS. 7A-7E. Full-length AR, but not AR variants, drives ENZ-resistant cell proliferation. A: C4-2CON and C4-2ENZ-R cells were treated with the indicated concentrations of ENZ, and cell proliferation was measured by SRB assay. Data are represented as means±s.d., n=6. Statistical significance was determined by two-way ANOVA. B: Heatmap showing RNA-seq read intensity of the canonical AR signature genes in C4-2CON and C4-2ENZ-R cells. C: RT-qPCR showing the mRNA level of KLK3 in C4-2CON and C4-2ENZ-R cells. Data are represented as means±s.d., n=3. Statistical significance was determined by unpaired two-tailed Student's t tests. D: Western blot analysis showing the expression of full-length (FL) AR and AR variants (Vs) in C4-2CON and C4-2ENZ-R cells. ERK2 was used as a loading control. E: UCSC genome browser tracks showing RNA-seq signals of AR and AR variants in C4-2CON and C4-2ENZ-R cells.
LNCaP, VCaP, LAPC4 PCa, and 293T cell lines were purchased from ATCC. […]
293T cells were co-transfected with control shRNA or shRNA specific for human AR, CXXC5, TET2, ID1, ID3 and PFN2. […] Cells were fixed at different time points (day 0-5) and cell growth was measured using a sulforhodamine B (SRB) assay (He et al., Nature Commun., 7:13122 (2016)).

ENZ-resistant PDXs = assay: ENZ-resistant patient-derived xenograft (PDX) tumor growth in mice; type: in vivo; conditions: castrated male mice; ENZ 10 mg/kg, CPI637 10 mg/kg, JQ1 50 mg/kg, oral gavage 5 days per week
C4-2ENZ-R xenografts = assay: C4-2ENZ-R xenograft tumor growth in SCID mice; type: in vivo; conditions: ENZ 10 mg/kg per day, 28 days, FIGS. 1A, 1B
Description: FIGS. 1A-1G. Genome-wide profiling of AR chromatin binding in ENZ-resistant PCa cells. A: Effect of ENZ treatment on growth of C4-2CON and C4-2ENZ-R xenografts in mice. C4-2ENZ-R and C4-2CON cells suspended in 0.1 mL matrigel were injected into the right flank of 6-week old male SCID mice. After the volume of tumor nodules reached about 100 mm^3, mice were randomly assigned within control and ENZ-resistant groups and were treated with ENZ at 10 mg/kg or vehicle per day and tumor volume was measured every 4 days. B: After 28 days of treatment, tumors were isolated from mice in each group and photographed. Data are represented as means±s.d., n=8. Statistical significance was determined by two-way ANOVA. […] D: AR was knocked down by specific shRNAs in C4-2CON and C4-2ENZ-R cells, and cell proliferation was measured by SRB assay. […] Statistical significance was determined by two-way ANOVA. E: Venn diagram showing AR chromatin binding peaks in C4-2CON and C4-2ENZ-R cells detected by ChIP-seq. F: Heatmaps showing ChIP-seq read intensity of AR, H3K27ac, and FOXA1 in C4-2CON and C4-2ENZ-R cells. […]
FIGS. 6A-6G. […] Representative images (scale bar, 50 μm), and quantified data are show in (a) and (b), respectively. […] Tumor size was measured every 4 days (d). After 28 days of treatment, tumors isolated from mice were photographed (e), and tumor weight was measured (f). […]

CRPC PDX = assay: CRPC patient-derived xenograft (PDX) tumor growth in mice; type: in vivo; conditions: ENZ 10 mg/kg daily, 32 days
Source text: FIG. 11A-D. Upregulation of CXXC5 and ID1 in AFI-resistant PCa patients. A: H&E staining and IHC for AR, CXXC5, and ID1 in hormone naïve, CRPC and ENZ-resistant PC patient specimens. Scale bar, 200 μm. B: H&E staining and IHC for AR, CXXC5, and ID1 in ABI-resistant ARPC patient specimens. Scale bar, 200 m (low magnification); 50 m (high magnification). C-D: Comparison of ENZ response in CRPC and ENZ-resistant PDXs. CRPC and ENZ-resistant PDXs were planted into the right flank of 6 week-old male SCID mice. After the tumor volume reached about 100 mm^3, mice were randomly assigned within each tumor group and treated with 10 mg/kg of […] daily. Tumor size was measured every 4 days (C). After 32 days of treatment, tumors were isolated and photographed (D). Data are represented as means±s.d., n=8. Statistical significance was determined by two-way ANOVA.
NOD-SCID male mice were generated in house and used for animal experiments. All mice were housed under standard conditions with a 12 hour light/dark cycle and access to food and water ad libitum and maintained under pathogen-free conditions. […] Mice were treated 5 days per week by oral gavage and tumor growth was measured in a blinded fashion using digital calipers. The tumor volume was calculated using the following equation: tumor volume=length×width×width×0.5.

Compound | sensitivity of C4-2ENZ-R cells compared with C4-2CON cells by half maximal inhibitory concentration (IC50) (C4-2ENZ-R cells) | response of ENZ-resistant PDXs to treatment (ENZ-resistant PDXs) | growth of C4-2ENZ-R xenografts under ENZ treatment in vivo (C4-2ENZ-R xenografts) | growth of C4-2ENZ-R cells under ENZ treatment in vitro (C4-2ENZ-R cells; in vitro, FIG. 7A) | response of CRPC PDX to treatment (CRPC PDX)
C[C@@H]1CC(=O)Nc2cccc(-c3ccc4c(c3)c(-c3cnn(C)c3)nn4C)c2N1 [CPI637] | much more sensitive | responded |  |  | 
CNC(=O)c1ccc(N2C(=S)N(c3ccc(C#N)c(C(F)(F)F)c3)C(=O)C2(C)C)cc1F [ENZ, enzalutamide] |  |  | resistant to ENZ treatment | resistant to ENZ treatment | still responded
Cc1sc2c(c1C)C(c1ccc(Cl)cc1)=N[C@@H](CC(=O)OC(C)(C)C)c1nnc(C)n1-2 [JQ1] | much more sensitive | responded |  |  | 
